Results: patent US20070288217A1, “Method for Standardization of Chemical and Therapeutic Values of Foods and Medicines Using Animated Chromatographic Fingerprinting” (priority 2004, published 2007)
Entries after “also recorded” stand apart in the source; their conditions may differ.

Assay: Chromatographic fingerprinting (HPLC-PDA contour and 3-D chromatograms) with interpretation of chemical and therapeutic properties by polarity and conjugation zones
Conditions: for Change of the molecules with time in the media (fingerprints at different time intervals): different time intervals under chemical conditions

In the case of `Cc1ccc(-c2cc(C(F)(F)F)nn2-c2ccc(S(N)(=O)=O)cc2)cc1` [Celebocoxib], the “Action compared to the other medicines of the same group” value is reported as “different in action”.
In the case of `O=C(/C=C/c1ccc(O)c(O)c1)O[C@@H]1C[C@](O)(C(=O)O)C[C@@H](O)[C@H]1O` [Chlorogenic acid], the “Change of the molecules with time in the media (fingerprints at different time intervals)” value is reported as “under go changes”.
With `CC(C)=CCC/C(C)=C/C=C/C(C)=C/C=C/C(C)=C/C=C/C=C(C)/C=C/C=C(C)/C=C/C=C(\C)CCC=C(C)C` [Lycopine] the “Therapeutic property / site of action interpreted from the fingerprint” value was “shrothoshodhaka property; also recorded: stress reliever” and the “Change of the molecules with time in the media (fingerprints at different time intervals)” value was “under go changes; also recorded: slowly diminished with time”.
With `CC12CC3CC(C)(C1)CC(N)(C3)C2` [Mamentane] the “Effect when consumed excessively, interpreted from the fingerprint” value (excessive use) was “effect on Maha srothas”.
In the case of `COc1ccc2[nH]c([S+]([O-])Cc3ncc(C)c(OC)c3C)nc2c1` (stereo not shown) [Onmeprazole], the “Therapeutic property interpreted from the fingerprint” value (simulated acidic condition) is reported as “Ropaneeya property” and the “Therapeutic property interpreted from the fingerprint” value (the other prakrithi) is reported as “has not acted so”.
